{
  "source": "paper PMC7736581",
  "about": "“Activation of the IRE1 RNase through remodeling of the kinase front pocket by ATP-competitive ligands” (Nature Communications, 2020)",
  "test_in_all_cases": "biochemical",
  "design_in_all_cases": "Invitrogen kinase panel: Z'Lyte activity (ATP at Km) or LanthaScreen competitive ATP-site binding, percent inhibition",
  "key": {"[1]": {"target": "T1, MYLK(smMLCK) (Homo sapiens, UniProt Q15746)", "T1 construct": "smMLCK"}, "[2]": {"target": "T2, CamKIV (Homo sapiens, UniProt Q16566)", "T2 construct": "gene CAMK4"}, "[3]": {"target": "FGFR3 (Homo sapiens, UniProt P22607)"}, "[4]": {"target": "T3, ARK5 (Homo sapiens, UniProt O60285)", "T3 construct": "gene NUAK1"}, "[5]": {"target": "CSF1R (Homo sapiens, UniProt P07333)"}, "[6]": {"target": "EphA1 (Homo sapiens, UniProt P21709)", "sequence (P21709 whole entry)": "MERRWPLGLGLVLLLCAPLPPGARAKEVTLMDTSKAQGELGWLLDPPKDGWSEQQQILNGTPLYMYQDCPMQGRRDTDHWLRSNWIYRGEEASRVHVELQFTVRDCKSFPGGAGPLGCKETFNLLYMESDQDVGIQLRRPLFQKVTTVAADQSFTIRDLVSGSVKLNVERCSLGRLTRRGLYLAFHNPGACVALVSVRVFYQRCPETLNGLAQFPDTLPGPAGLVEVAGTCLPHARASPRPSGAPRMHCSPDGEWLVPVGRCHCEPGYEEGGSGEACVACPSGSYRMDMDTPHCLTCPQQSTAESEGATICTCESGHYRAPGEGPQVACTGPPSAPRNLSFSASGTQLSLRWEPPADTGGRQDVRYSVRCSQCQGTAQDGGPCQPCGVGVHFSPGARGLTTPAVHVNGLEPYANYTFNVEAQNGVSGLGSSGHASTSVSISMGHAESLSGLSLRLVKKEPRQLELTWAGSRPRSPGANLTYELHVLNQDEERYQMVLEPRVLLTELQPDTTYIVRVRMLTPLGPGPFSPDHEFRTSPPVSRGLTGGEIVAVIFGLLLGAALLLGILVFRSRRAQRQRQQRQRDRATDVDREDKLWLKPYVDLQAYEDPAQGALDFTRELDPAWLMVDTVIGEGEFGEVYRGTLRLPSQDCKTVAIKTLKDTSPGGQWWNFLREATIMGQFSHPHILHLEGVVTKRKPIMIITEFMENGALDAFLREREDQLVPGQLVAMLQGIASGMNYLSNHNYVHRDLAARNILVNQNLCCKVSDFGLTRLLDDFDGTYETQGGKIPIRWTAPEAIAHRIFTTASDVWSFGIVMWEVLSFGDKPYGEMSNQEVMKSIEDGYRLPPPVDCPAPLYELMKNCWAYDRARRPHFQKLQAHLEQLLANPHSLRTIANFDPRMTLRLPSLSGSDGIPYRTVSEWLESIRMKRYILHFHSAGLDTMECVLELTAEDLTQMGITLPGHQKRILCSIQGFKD"}, "[7]": {"target": "TTK (Homo sapiens, UniProt P33981)"}, "[8]": {"target": "Axl (Homo sapiens, UniProt P30530)"}, "[9]": {"target": "T4, PKC_alpha (Homo sapiens, UniProt P17252)", "T4 construct": "gene PRKCA"}, "[10]": {"target": "DYRK1A (Homo sapiens, UniProt Q13627)"}, "[11]": {"target": "T5, Rse (Homo sapiens, UniProt Q06418)", "T5 construct": "gene TYRO3"}, "[12]": {"target": "T6, JNK1_alpha1 (Homo sapiens, UniProt P45983)", "T6 construct": "gene MAPK8; isoform alpha1"}, "[13]": {"target": "T7, PI3K-A (Homo sapiens, UniProt P42336)", "T7 construct": "gene PIK3CA"}, "[14]": {"target": "ACVR2B (Homo sapiens, UniProt Q13705)"}, "[15]": {"target": "T8, MSK1 (Homo sapiens, UniProt O75582)", "T8 construct": "gene RPS6KA5"}, "[16]": {"target": "T9, ASK1 (Homo sapiens, UniProt Q99683)", "T9 construct": "gene MAP3K5", "T9 sequence (Q99683 whole entry)": "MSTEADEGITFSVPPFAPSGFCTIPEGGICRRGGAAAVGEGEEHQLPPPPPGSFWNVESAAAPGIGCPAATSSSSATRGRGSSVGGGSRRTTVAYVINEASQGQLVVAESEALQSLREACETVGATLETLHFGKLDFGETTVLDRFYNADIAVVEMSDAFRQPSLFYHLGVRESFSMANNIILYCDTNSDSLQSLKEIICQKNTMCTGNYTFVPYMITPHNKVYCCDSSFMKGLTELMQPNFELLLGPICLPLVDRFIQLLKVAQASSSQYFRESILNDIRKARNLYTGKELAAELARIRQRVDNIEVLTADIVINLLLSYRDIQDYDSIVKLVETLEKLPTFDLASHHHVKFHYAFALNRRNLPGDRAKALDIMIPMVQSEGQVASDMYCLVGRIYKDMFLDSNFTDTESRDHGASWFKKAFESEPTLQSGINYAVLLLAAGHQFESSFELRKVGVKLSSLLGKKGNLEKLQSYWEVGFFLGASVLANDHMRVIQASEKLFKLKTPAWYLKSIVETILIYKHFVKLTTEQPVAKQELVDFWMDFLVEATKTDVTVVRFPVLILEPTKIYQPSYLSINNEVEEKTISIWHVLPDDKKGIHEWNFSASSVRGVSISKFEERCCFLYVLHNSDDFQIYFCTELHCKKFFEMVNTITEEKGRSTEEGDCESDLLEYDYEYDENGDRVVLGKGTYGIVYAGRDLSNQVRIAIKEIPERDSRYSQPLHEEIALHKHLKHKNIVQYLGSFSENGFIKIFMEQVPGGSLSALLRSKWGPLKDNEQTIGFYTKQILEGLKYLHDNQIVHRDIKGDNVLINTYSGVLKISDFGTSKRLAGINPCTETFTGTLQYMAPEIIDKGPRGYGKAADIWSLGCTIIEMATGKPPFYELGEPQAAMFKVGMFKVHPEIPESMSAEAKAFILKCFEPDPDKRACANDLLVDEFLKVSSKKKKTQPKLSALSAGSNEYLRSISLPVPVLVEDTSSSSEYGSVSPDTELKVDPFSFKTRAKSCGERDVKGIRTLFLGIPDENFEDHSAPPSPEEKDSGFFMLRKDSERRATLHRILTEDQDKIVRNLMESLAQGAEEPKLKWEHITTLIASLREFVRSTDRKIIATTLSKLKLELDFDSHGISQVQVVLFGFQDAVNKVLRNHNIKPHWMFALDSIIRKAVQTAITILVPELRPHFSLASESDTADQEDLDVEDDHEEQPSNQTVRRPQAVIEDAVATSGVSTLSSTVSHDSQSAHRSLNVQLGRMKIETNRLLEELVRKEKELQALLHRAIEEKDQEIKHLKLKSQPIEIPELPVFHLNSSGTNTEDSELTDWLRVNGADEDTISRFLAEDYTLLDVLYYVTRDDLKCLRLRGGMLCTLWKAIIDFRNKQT"}, "[17]": {"target": "MARK3 (Homo sapiens, UniProt P27448)"}, "[18]": {"target": "InsR (Homo sapiens, UniProt P06213)"}, "[19]": {"target": "T10, Ros (Homo sapiens, UniProt P08922)", "T10 construct": "gene ROS1"}, "[20]": {"target": "T11, KHS1 (Homo sapiens, UniProt Q9Y4K4)", "T11 construct": "gene MAP4K5"}, "[21]": {"target": "ErbB2 (Homo sapiens, UniProt P04626)", "sequence (P04626 whole entry)": "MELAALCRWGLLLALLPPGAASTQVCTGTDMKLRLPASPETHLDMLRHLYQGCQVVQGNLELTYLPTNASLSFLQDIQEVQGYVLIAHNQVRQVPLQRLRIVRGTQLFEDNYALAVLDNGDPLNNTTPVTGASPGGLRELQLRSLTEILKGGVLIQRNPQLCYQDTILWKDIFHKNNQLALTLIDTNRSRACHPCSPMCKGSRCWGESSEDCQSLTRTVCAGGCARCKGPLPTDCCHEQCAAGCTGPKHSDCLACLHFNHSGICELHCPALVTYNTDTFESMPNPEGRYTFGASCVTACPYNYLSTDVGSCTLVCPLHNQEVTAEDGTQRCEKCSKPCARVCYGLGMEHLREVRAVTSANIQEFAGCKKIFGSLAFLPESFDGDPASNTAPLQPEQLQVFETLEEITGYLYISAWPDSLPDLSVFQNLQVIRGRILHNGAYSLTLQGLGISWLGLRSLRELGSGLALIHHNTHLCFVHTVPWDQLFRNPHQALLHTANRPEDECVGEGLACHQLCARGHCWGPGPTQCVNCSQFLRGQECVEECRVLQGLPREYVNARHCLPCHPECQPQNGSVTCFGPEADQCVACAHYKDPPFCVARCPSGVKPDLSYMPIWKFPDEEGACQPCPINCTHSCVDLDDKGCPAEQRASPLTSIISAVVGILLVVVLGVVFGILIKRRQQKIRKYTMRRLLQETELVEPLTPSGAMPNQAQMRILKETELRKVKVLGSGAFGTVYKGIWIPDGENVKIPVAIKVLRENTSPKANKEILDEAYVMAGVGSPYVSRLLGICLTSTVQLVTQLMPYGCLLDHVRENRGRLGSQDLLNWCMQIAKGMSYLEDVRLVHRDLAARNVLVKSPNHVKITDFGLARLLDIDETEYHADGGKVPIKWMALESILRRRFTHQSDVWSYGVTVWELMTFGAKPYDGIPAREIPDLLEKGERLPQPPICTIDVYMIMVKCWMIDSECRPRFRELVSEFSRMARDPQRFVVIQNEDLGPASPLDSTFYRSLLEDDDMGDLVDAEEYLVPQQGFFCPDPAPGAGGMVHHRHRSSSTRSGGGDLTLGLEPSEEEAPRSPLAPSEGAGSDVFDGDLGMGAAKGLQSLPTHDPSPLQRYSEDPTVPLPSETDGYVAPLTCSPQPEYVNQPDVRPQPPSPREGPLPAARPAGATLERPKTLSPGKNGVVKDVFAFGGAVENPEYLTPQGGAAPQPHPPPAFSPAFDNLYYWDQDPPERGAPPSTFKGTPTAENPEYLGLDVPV"}, "[22]": {"target": "PAK4 (Homo sapiens, UniProt O96013)"}, "[23]": {"target": "T12, GSK3_alpha (Homo sapiens, UniProt P49840)", "T12 construct": "gene GSK3A"}, "[24]": {"target": "EGFR (Homo sapiens, UniProt P00533)", "sequence (P00533 whole entry)": "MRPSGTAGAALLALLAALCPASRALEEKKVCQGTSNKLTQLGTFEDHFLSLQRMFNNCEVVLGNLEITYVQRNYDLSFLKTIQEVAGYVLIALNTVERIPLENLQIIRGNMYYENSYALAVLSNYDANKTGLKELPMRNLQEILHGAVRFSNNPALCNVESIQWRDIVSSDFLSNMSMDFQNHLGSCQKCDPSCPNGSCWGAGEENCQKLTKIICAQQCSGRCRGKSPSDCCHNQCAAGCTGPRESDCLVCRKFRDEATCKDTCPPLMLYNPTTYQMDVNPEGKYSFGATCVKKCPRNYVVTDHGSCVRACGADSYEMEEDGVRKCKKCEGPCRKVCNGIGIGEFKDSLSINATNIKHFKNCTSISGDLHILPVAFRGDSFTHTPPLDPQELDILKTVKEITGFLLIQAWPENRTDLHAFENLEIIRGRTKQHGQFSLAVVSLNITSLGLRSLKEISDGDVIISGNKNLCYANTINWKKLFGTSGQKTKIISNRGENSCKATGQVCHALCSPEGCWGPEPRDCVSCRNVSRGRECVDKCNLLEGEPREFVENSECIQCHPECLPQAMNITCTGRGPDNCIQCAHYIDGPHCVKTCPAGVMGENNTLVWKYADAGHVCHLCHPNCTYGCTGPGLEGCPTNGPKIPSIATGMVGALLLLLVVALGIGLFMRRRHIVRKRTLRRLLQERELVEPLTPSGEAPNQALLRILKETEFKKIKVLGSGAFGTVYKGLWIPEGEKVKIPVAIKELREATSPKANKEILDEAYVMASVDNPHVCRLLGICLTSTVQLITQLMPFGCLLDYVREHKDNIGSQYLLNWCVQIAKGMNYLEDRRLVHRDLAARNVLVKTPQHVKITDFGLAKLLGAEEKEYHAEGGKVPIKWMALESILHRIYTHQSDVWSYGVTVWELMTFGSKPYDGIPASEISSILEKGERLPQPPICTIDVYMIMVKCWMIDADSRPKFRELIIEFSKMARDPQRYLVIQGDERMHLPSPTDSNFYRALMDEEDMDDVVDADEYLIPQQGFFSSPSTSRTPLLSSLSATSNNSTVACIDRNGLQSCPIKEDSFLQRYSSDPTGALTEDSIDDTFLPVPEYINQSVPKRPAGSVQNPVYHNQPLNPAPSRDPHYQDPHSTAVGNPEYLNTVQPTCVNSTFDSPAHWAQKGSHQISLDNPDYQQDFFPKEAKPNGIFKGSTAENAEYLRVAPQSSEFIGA"}, "[25]": {"target": "Kit (Homo sapiens, UniProt P10721)"}},
  "data": [
    {"smiles": "CCOC(=O)Nc1cccc2c(Oc3ncccc3-c3ccnc(N[C@H]4CCCNC4)n3)c(C)ccc12", "note": "[G-1749]", "values": [
      {"measurement": "inhibition at 1 µM", "setting": "[1]", "result": 1.5, "unit": "%"},
      {"measurement": "inhibition at 1 µM", "setting": "[2]", "result": -1.5, "unit": "%"},
      {"measurement": "inhibition at 1 µM", "setting": "[3]", "result": -6, "unit": "%"},
      {"measurement": "inhibition at 1 µM", "setting": "[4]", "result": 12, "unit": "%"},
      {"measurement": "inhibition at 1 µM", "setting": "[5]", "result": 7, "unit": "%"},
      {"measurement": "inhibition at 1 µM", "setting": "[6]", "result": 7, "unit": "%"},
      {"measurement": "inhibition at 1 µM", "setting": "[7]", "result": 16, "unit": "%"},
      {"measurement": "inhibition at 1 µM", "setting": "[8]", "result": -1.5, "unit": "%"},
      {"measurement": "inhibition at 1 µM", "setting": "[9]", "result": 1.5, "unit": "%"},
      {"measurement": "inhibition at 1 µM", "setting": "[10]", "result": 4, "unit": "%"},
      {"measurement": "inhibition at 1 µM", "setting": "[11]", "result": 8.5, "unit": "%"},
      {"measurement": "inhibition at 1 µM", "setting": "[12]", "result": 53.5, "unit": "%"},
      {"measurement": "inhibition at 1 µM", "setting": "[13]", "result": 10, "unit": "%"},
      {"measurement": "inhibition at 1 µM", "setting": "[14]", "result": 18.5, "unit": "%"},
      {"measurement": "inhibition at 1 µM", "setting": "[15]", "result": -3, "unit": "%"},
      {"measurement": "inhibition at 1 µM", "setting": "[16]", "result": -4, "unit": "%"},
      {"measurement": "inhibition at 1 µM", "setting": "[17]", "result": 8, "unit": "%"},
      {"measurement": "inhibition at 1 µM", "setting": "[18]", "result": 2.5, "unit": "%"},
      {"measurement": "inhibition at 1 µM", "setting": "[19]", "result": 7, "unit": "%"},
      {"measurement": "inhibition at 1 µM", "setting": "[20]", "result": 29.5, "unit": "%"},
      {"measurement": "inhibition at 1 µM", "setting": "[21]", "result": 7.5, "unit": "%"},
      {"measurement": "inhibition at 1 µM", "setting": "[22]", "result": 0, "unit": "%"},
      {"measurement": "inhibition at 1 µM", "setting": "[23]", "result": 2.5, "unit": "%"},
      {"measurement": "inhibition at 1 µM", "setting": "[24]", "result": -6, "unit": "%"},
      {"measurement": "inhibition at 1 µM", "setting": "[25]", "result": 0, "unit": "%"}
    ]},
    {"smiles": "CC#CC(=O)Nc1cccc2c(Oc3ncccc3-c3ccnc(N[C@H]4CCCNC4)n3)c(C)ccc12", "note": "[G-7658]", "values": [
      {"measurement": "inhibition at 1 µM", "setting": "[1]", "result": 6, "unit": "%"},
      {"measurement": "inhibition at 1 µM", "setting": "[2]", "result": -2.5, "unit": "%"},
      {"measurement": "inhibition at 1 µM", "setting": "[3]", "result": -5, "unit": "%"},
      {"measurement": "inhibition at 1 µM", "setting": "[4]", "result": 8, "unit": "%"},
      {"measurement": "inhibition at 1 µM", "setting": "[5]", "result": -7.5, "unit": "%"},
      {"measurement": "inhibition at 1 µM", "setting": "[6]", "result": 6, "unit": "%"},
      {"measurement": "inhibition at 1 µM", "setting": "[7]", "result": 11.5, "unit": "%"},
      {"measurement": "inhibition at 1 µM", "setting": "[8]", "result": -1, "unit": "%"},
      {"measurement": "inhibition at 1 µM", "setting": "[9]", "result": 4, "unit": "%"},
      {"measurement": "inhibition at 1 µM", "setting": "[10]", "result": 2.5, "unit": "%"},
      {"measurement": "inhibition at 1 µM", "setting": "[11]", "result": 6.5, "unit": "%"},
      {"measurement": "inhibition at 1 µM", "setting": "[12]", "result": 72.5, "unit": "%"},
      {"measurement": "inhibition at 1 µM", "setting": "[13]", "result": -18.5, "unit": "%"},
      {"measurement": "inhibition at 1 µM", "setting": "[14]", "result": 8.5, "unit": "%"},
      {"measurement": "inhibition at 1 µM", "setting": "[15]", "result": -6, "unit": "%"},
      {"measurement": "inhibition at 1 µM", "setting": "[16]", "result": 2, "unit": "%"},
      {"measurement": "inhibition at 1 µM", "setting": "[17]", "result": 8, "unit": "%"},
      {"measurement": "inhibition at 1 µM", "setting": "[18]", "result": 3, "unit": "%"},
      {"measurement": "inhibition at 1 µM", "setting": "[19]", "result": 8, "unit": "%"},
      {"measurement": "inhibition at 1 µM", "setting": "[20]", "result": 18, "unit": "%"},
      {"measurement": "inhibition at 1 µM", "setting": "[21]", "result": 3.5, "unit": "%"},
      {"measurement": "inhibition at 1 µM", "setting": "[22]", "result": 0, "unit": "%"},
      {"measurement": "inhibition at 1 µM", "setting": "[23]", "result": 10.5, "unit": "%"},
      {"measurement": "inhibition at 1 µM", "setting": "[24]", "result": -9, "unit": "%"},
      {"measurement": "inhibition at 1 µM", "setting": "[25]", "result": -0.5, "unit": "%"}
    ]}
  ]
}
